Source: ChEMBL document CHEMBL3046271, “Design and synthesis of 3-[3-(substituted phenyl)-4-piperidin-1-ylmethyl/-4-morpholin-4-ylmethyl-4,5-dihydro-isoxazol-5-yl]-1H-indoles as potent anti-inflammatory agents” (Med Chem Res, 2010)

Experiments:
Rattus norvegicus [1] = test: Antioxidant activity in Rattus norvegicus Wistar (rat) assessed as malondialdehyde content in gastric mucosa at 210 mg/kg, po after 17 hr by UV spectrophotometric analysis (reference value: 3.23 +/- 0.05 nmol); format: functional
Rattus norvegicus [2] = test: Anti-inflammatory activity in Rattus norvegicus Wistar (rat) assessed as inhibition of carrageenan-induced paw edema at 70 mg/kg, po administered 1 hr prior to carrageenan challenge measured after 3 hr by plethysmometric analysis relative to control; format: functional
Rattus norvegicus [3] = test: Ulcerogenic activity in Rattus norvegicus Wistar (rat) stomach assessed as severity index at 210 mg/kg, po after 17 hr relative to control; format: toxicity, organism-based; design: dose 210 mg/kg, route oral; conditions: in vivo
Rattus norvegicus [4] = test: Anti-inflammatory activity in Rattus norvegicus Wistar (rat) assessed as inhibition of carrageenan-induced paw edema at 70 mg/kg, po administered 1 hr prior to carrageenan challenge measured after 4 hr by plethysmometric analysis relative to control; format: functional
Rattus norvegicus [5] = test: Ulcerogenic activity in Rattus norvegicus Wistar (rat) stomach assessed as severity index at 105 mg/kg, po after 17 hr relative to control; format: toxicity, organism-based; design: dose 105 mg/kg, route oral; conditions: in vivo
Rattus norvegicus [6] = test: Anti-inflammatory activity in Rattus norvegicus Wistar (rat) assessed as inhibition of carrageenan-induced paw edema at 35 mg/kg, po administered 1 hr prior to carrageenan challenge measured after 4 hr by plethysmometric analysis relative to control; format: functional
Rattus norvegicus [7] = test: Antioxidant activity in Rattus norvegicus Wistar (rat) assessed as malondialdehyde content in gastric mucosa at 105 mg/kg, po after 17 hr by UV spectrophotometric analysis (reference value: 3.23 +/- 0.05 nmol); format: functional
Rattus norvegicus [8] = test: Anti-inflammatory activity in Rattus norvegicus Wistar (rat) assessed as inhibition of carrageenan-induced paw edema at 35 mg/kg, po administered 1 hr prior to carrageenan challenge measured after 3 hr by plethysmometric analysis relative to control; format: functional

COc1ccc(C2=NOC(c3c[nH]c4ccccc34)C2CN2CCCCC2)cc1 (stereo not given)
Activity (Rattus norvegicus [1]): 4.51 nmol | inhibition in vivo at 70 mg/kg (Rattus norvegicus [2]): 45.1% | UI (Rattus norvegicus [3]): 0.75 | inhibition in vivo at 70 mg/kg (Rattus norvegicus [4]): 50.5%

Cc1ccc(C2=NOC(c3c[nH]c4ccccc34)C2CN2CCOCC2)cc1 (stereo not given)
inhibition in vivo at 70 mg/kg (Rattus norvegicus [2]): 38.2% | inhibition in vivo at 70 mg/kg (Rattus norvegicus [4]): 48.5%

COc1ccc2c(c1)c(CC(=O)O)c(C)n2C(=O)c1ccc(Cl)cc1 [INDOMETHACIN]
UI (Rattus norvegicus [5]): 2.33 | inhibition in vivo at 35 mg/kg (Rattus norvegicus [6]): 76.5% | Activity (Rattus norvegicus [7]): 9.29 nmol | inhibition in vivo at 35 mg/kg (Rattus norvegicus [8]): 65.2%

c1ccc(C2=NOC(c3c[nH]c4ccccc34)C2CN2CCCCC2)cc1 (stereo not given)
inhibition in vivo at 70 mg/kg (Rattus norvegicus [2]): 34.3% | inhibition in vivo at 70 mg/kg (Rattus norvegicus [4]): 48.5%

Clc1ccc(C2=NOC(c3c[nH]c4ccccc34)C2CN2CCCCC2)cc1 (stereo not given)
Activity (Rattus norvegicus [1]): 4.38 nmol | inhibition in vivo at 70 mg/kg (Rattus norvegicus [2]): 45.1% | UI (Rattus norvegicus [3]): 0.583 | inhibition in vivo at 70 mg/kg (Rattus norvegicus [4]): 53.5%

Cc1ccc(C2=NOC(c3c[nH]c4ccccc34)C2CN2CCCCC2)cc1 (stereo not given)
Activity (Rattus norvegicus [1]): 4.28 nmol | inhibition in vivo at 70 mg/kg (Rattus norvegicus [2]): 41.2% | UI (Rattus norvegicus [3]): 0.5 | inhibition in vivo at 70 mg/kg (Rattus norvegicus [4]): 51.5%

COc1ccc(C2=NOC(c3c[nH]c4ccccc34)C2CN2CCOCC2)cc1 (stereo not given)
Activity (Rattus norvegicus [1]): 4.16 nmol | inhibition in vivo at 70 mg/kg (Rattus norvegicus [2]): 44.1% | UI (Rattus norvegicus [3]): 0.25 | inhibition in vivo at 70 mg/kg (Rattus norvegicus [4]): 55.5%

c1ccc(C2=NOC(c3c[nH]c4ccccc34)C2CN2CCOCC2)cc1 (stereo not given)
inhibition in vivo at 70 mg/kg (Rattus norvegicus [2]): 35.3% | inhibition in vivo at 70 mg/kg (Rattus norvegicus [4]): 45.5%

Clc1ccc(C2=NOC(c3c[nH]c4ccccc34)C2CN2CCOCC2)cc1 (stereo not given)
Activity (Rattus norvegicus [1]): 4.39 nmol | inhibition in vivo at 70 mg/kg (Rattus norvegicus [2]): 44.1% | UI (Rattus norvegicus [3]): 0.75 | inhibition in vivo at 70 mg/kg (Rattus norvegicus [4]): 50.5%
